# Patent publication US11994513B2, “Diagnostic and prognostic methods for estrogen-induced cancers” (The University of Newcastle, priority 2018, dated 2024)
# Columns and labels:
# [1] = tested on: ALPPL2 mRNA expression; experiment: Quantitative real-time PCR of ALPPL2 mRNA in hormone-treated Ishikawa organoids; assay type: cell-based, human; conditions: FIG. 2C
# Procedure: (§1) 5,000 Ishikawa cells/well were seeded in triplicate in 100 μL medium onto 96-well tissue culture plates coated with a thin layer of reduced growth factor basement membrane extract (Cultrex® RGF BME: Trevigen) and were allowed to form organoids. After 24 hours, the organoids were subjected to desired hormonal treatments: 10 nmol/L estrogen ((β-Estradiol, Sigma #E8875) and 100 nmol/L progesterone (Medroxyprogesterone 17-acetate, Sigma #M1629). The culture medium containing desired hormone concentration was changed on every 48 hours. On day 7, colony size was measured and images were photographed using JuLI™ Stage Real-Time Cell History Recorder (NanoEnTek) in an incubator at 37° C. humidified with 5% CO2. 72 hours post-treatment, cells were incubated with CellTiter-Glo® 3D Reagent (Promega) for 30 minutes at room temperature and luminescence signal was recorded using the FLUOstar OPTIMA (BMG Labtech). […]
# Total RNA was isolated from estrogen or progesterone treated mouse uterus and Ishikawa cells using RNeasy Mini kit (Qiagen) following manufacturer's instructions. […] Quantitative real-time PCR (Q-PCR) was performed using RT^2 SYBR Green ROX qPCR Mastermix (Qiagen) on a 7900 HT FAST Thermocycler (Applied Biosystems) through a pre-incubation step, and 40 amplification cycles (including denaturation, annealing and extension segments). […]
# [2] = tested on: ALPPL2 protein; experiment: Western blot of ALPPL2 protein in hormone-treated Ishikawa cells and organoids; assay type: cell-based, human; conditions: Ishikawa cells and organoids treated with E2 and/or P4, FIGS. 2D and 2E
# Procedure: as §1
# Human endometrial cancer samples, mouse uterine tissue, and Ishikawa cells were lysed in ice-cold RIPA (radioimmunoprecipitation assay) buffer (50 mmol/L Tris-HCl pH 7.5, 150 mmol/L NaCl, 1% NP-40, 0.5% Sodium deoxycholate, 0.1% SDS) containing protease and phosphatase inhibitors (Sigma). […] The membrane was washed again in TBS-T, developed using a chemiluminescent substrate (Millipore) for detection of HRP and the protein bands were detected by chemiluminescence (Fujifilm LAS-4000). […]
# [3] = tested on: mice uteri; experiment: Hormone pellet treatment of ovariectomized mice: uterine histology and ALPPL2 immunohistochemistry; assay type: in vivo, C57BL/6 mice
# [4] = tested on: Ishikawa organoids; experiment: 3D organoid formation assay: colony size and proliferation (CellTiter-Glo 3D); assay type: cell-based, human
# Procedure: The human endometrial adenocarcinoma cell line Ishikawa (Sigma #99040201) was cultured in MEM (HyClone) medium supplemented with 5% heat-inactivated FBS (Bovogen Biologicals), 2 mmol/L L-glutamine (HyClone), and antibiotics (50 U/mL penicillin, 50 mg/L streptomycin; Gibco) in a humidified atmosphere at 37° C. containing 5% CO2. Cell line authentication was done by short tandem repeat (STR) DNA profiling method and mycoplasma contamination in cells was routinely conducted using MycoAlert™ Plus Mycoplasma detection kit (Lonza). 5,000 Ishikawa cells/well were seeded in triplicate in 100 μL medium onto 96-well tissue culture plates coated with a thin layer of reduced growth factor basement membrane extract (Cultrex® RGF BME: Trevigen) and were allowed to form organoids. After 24 hours, the organoids were subjected to desired hormonal treatments: 10 nmol/L estrogen ((β-Estradiol, Sigma #E8875) and 100 nmol/L progesterone (Medroxyprogesterone 17-acetate, Sigma #M1629). The culture medium containing desired hormone concentration was changed on every 48 hours. On day 7, colony size was measured and images were photographed using JuLI™ Stage Real-Time Cell History Recorder (NanoEnTek) in an incubator at 37° C. humidified with 5% CO2. 72 hours post-treatment, cells were incubated with CellTiter-Glo® 3D Reagent (Promega) for 30 minutes at room temperature and luminescence signal was recorded using the FLUOstar OPTIMA (BMG Labtech). Ishikawa 3D organoids were fixed in 4% paraformaldehyde (Electron Microscopy Sciences, ProSciTech) for 20 minutes and processed for immunofluorescence, as described previously (Sahoo et al, Oncotarget, 2017, 8:71400-17).
Compound,"ALPPL2 mRNA expression ([1]; E2 treated organoids, 10 nmol/L)","ALPPL2 protein expression (western blot, total cell lysate) [2]","ALPPL2 expression in uterus (immunohistochemical analysis) ([3]; E2 pellet for 3 months, FIG. 3A)","endometrial hyperplasia (histological analysis) ([3]; E2 pellet for 3 months, compared to E2 and P4 treated uteri, data not shown)","proliferation of Ishikawa organoids ([4]; E2 10 nmol/L, 3D culture, 72 hours post-treatment, FIG. 2B)","size of Ishikawa organoids ([4]; E2 10 nmol/L, 3D culture, day 7, FIG. 2A)",effect on E2-induced ALPPL2 mRNA upregulation ([1]; P4 100 nmol/L with E2 10 nmol/L),"effect on E2-induced ALPPL2 expression in uterus (immunohistochemical analysis) ([3]; E2 and P4 pellets for 3 months, FIG. 3A)","mitogenic action of E2 on Ishikawa organoids (size and proliferation) ([4]; P4 100 nmol/L with E2 10 nmol/L, FIGS. 2A and 2B)"
β-Estradiol [E2],significantly upregulated,Overexpression of ALPPL2,increase in ALPPL2 expression,increased endometrial hyperplasia,increased,increased,–,–,–
"CC(=O)[C@H]1CC[C@H]2[C@@H]3CCC4=CC(=O)CC[C@]4(C)[C@H]3CC[C@]12C [P4, progesterone]",–,–,–,–,–,–,inhibited this effect,attenuated the effect of E2,counterbalanced
